Article PMC9516332 (Frontiers in Oncology, 2022)
Read-outs that look alike come from different tables or passages of the source.

How the values were obtained:
Assay in all cases: Kinase panel profiling at 1 µmol/L (MSA or IMAP), percentage inhibition
Assay type in all cases: biochemical
[1] = target: panel of 255 wild-type kinases (Homo sapiens, UniProt O75676); settings: MSK2; 1 µmol/L single concentration; read-out: %-inhibition, MSK2
[2] = target: panel of 255 wild-type kinases (Homo sapiens, UniProt O96013); settings: PAK4; 1 µmol/L single concentration; read-out: %-inhibition, PAK4
[3] = target: panel of 255 wild-type kinases (Homo sapiens, UniProt O96017); settings: CHK2 kinase assay; 1 µmol/L single concentration; read-out: %-inhibition CHK2
[4] = target: panel of 255 wild-type kinases (Homo sapiens, UniProt P00533); settings: kinase EGFR; 1 µmol/L single concentration; read-out: %-inhibition at 1 µmol/L, EGFR
[5] = target: panel of 255 wild-type kinases (Homo sapiens, UniProt P11362); settings: kinase FGFR1; 1 µmol/L single concentration; read-out: %-inhibition at 1 µmol/L, FGFR1
[6] = target: panel of 255 wild-type kinases (Homo sapiens, UniProt P24941); settings: 1 µmol/L single concentration
[7] = target: panel of 255 wild-type kinases (Homo sapiens, UniProt P27448); settings: MARK3; 1 µmol/L single concentration; read-out: %-inhibition, MARK3
[8] = target: panel of 255 wild-type kinases (Homo sapiens, UniProt P42685); settings: kinase FRK; 1 µmol/L single concentration; read-out: %-inhibition at 1 µmol/L, FRK
[9] = target: panel of 255 wild-type kinases (Homo sapiens, UniProt P49840); settings: kinase GSK3α; 1 µmol/L single concentration; read-out: %-inhibition at 1 µmol/L, GSK3α
[10] = target: panel of 255 wild-type kinases (Homo sapiens, UniProt P54646); settings: AMPKα2/β1/γ1 kinase assay; 1 µmol/L single concentration; read-out: %-inhibition AMPKα2/β1/γ1
[11] = target: panel of 255 wild-type kinases (Homo sapiens, UniProt Q02763); settings: kinase TIE2; 1 µmol/L single concentration; read-out: %-inhibition at 1 µmol/L, TIE2
[12] = target: panel of 255 wild-type kinases (Homo sapiens, UniProt Q13164); settings: kinase Erk5; 1 µmol/L single concentration; read-out: %-inhibition at 1 µmol/L, Erk5
[13] = target: panel of 255 wild-type kinases (Homo sapiens, UniProt Q13555); settings: CaMK2γ kinase assay; 1 µmol/L single concentration; read-out: %-inhibition CaMK2γ
[14] = target: panel of 255 wild-type kinases (Homo sapiens, UniProt Q13557); settings: CaMK2δ kinase assay; 1 µmol/L single concentration; read-out: %-inhibition CaMK2δ
[15] = target: panel of 255 wild-type kinases (Homo sapiens, UniProt Q16816); settings: kinase PHKG1; 1 µmol/L single concentration; read-out: %-inhibition at 1 µmol/L, PHKG1
[16] = target: T1, panel of 255 wild-type kinases (Homo sapiens, UniProt Q96PN8); settings: kinase TSSK3; 1 µmol/L single concentration; read-out: %-inhibition at 1 µmol/L, TSSK3
T1 sequence (Q96PN8 1-268): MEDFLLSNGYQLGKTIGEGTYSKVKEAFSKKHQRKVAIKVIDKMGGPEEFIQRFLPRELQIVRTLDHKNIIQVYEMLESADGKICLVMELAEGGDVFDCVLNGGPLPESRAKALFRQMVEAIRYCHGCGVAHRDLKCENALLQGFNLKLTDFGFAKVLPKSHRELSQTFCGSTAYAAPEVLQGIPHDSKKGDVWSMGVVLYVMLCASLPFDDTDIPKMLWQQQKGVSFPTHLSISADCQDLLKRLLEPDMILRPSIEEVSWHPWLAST

[17] = target: panel of 255 wild-type kinases (Homo sapiens, UniProt Q96SB4); settings: kinase SRPK1; 1 µmol/L single concentration; read-out: %-inhibition at 1 µmol/L, SRPK1
[18] = target: panel of 255 wild-type kinases (Homo sapiens, UniProt Q9Y2H1); settings: NDR2; 1 µmol/L single concentration; read-out: %-inhibition, NDR2
[19] = target: panel of 255 wild-type kinases (Homo sapiens, UniProt Q9Y463); settings: kinase DYRK1B; 1 µmol/L single concentration; read-out: %-inhibition at 1 µmol/L, DYRK1B
[20] = target: panel of 255 wild-type kinases (Homo sapiens, UniProt P16234); settings: kinase PDGFRα; 1 µmol/L single concentration; read-out: %-inhibition at 1 µmol/L, PDGFRα
[21] = CDK2/CycA2 kinase assay, read-out: %-inhibition CDK2/CycA2
[22] = CDK2/CycE1 kinase assay, read-out: %-inhibition CDK2/CycE1

Structure (SMILES)	inhibition at 1 µM [1] [%]	inhibition at 1 µM [2] [%]	inhibition at 1 µM [3] [%]	inhibition at 1 µM [5] [%]	inhibition at 1 µM [6, 21] [%]	inhibition at 1 µM [6, 22] [%]	inhibition at 1 µM [7] [%]	inhibition at 1 µM [8] [%]	inhibition at 1 µM [9] [%]	inhibition at 1 µM [10] [%]	inhibition at 1 µM [11] [%]	inhibition at 1 µM [12] [%]	inhibition at 1 µM [13] [%]	inhibition at 1 µM [14] [%]	inhibition at 1 µM [15] [%]	inhibition at 1 µM [16] [%]	inhibition at 1 µM [17] [%]	inhibition at 1 µM [18] [%]	inhibition at 1 µM [19] [%]	inhibition at 1 µM [20] [%]	also measured
Cn1cc(-c2cc3c(N4CCN(c5ncc([C@@](C)(N)c6ccc(F)cc6)cn5)CC4)ncnn3c2)cn1 [avapritinib]	5	8	5.47	41	-0.664	-37	-6	25	3	3	3.23	1.78	-4	-2.56	-0.381	-4	-12	-2.84	47	–	inhibition at 1 µM [4]: 25%
CN1CCN(c2ccc(C(=O)Nc3n[nH]c4ccc(Cc5cc(F)cc(F)c5)cc34)c(NC3CCOCC3)c2)CC1 [entrectinib]	2.7	–	31	90	20	11	15	96	-0.424	79	72	13	17	28	54	5.68	2.16	51	6	29	–
CCN1CCN(c2ccc(Nc3cc(N(C)C(=O)Nc4c(Cl)c(OC)cc(OC)c4Cl)ncn3)cc2)CC1 [infigratinib]	-0.703	6	-0.482	100	11	-33	-7.59	–	-1.67	-2	63	30	-3.37	-1.48	0.355	-1.43	-0.85	-3.19	-2.3	59	–
C[C@H]1Oc2cc(cnc2N)-c2c(nn(C)c2C#N)CN(C)C(=O)c2ccc(F)cc21 [lorlatinib]	-3.24	1.84	41	3.43	1.87	-6.33	26	–	-2.36	2.22	17	38	10	36	65	3.55	5.65	2.18	-2.8	1.74	inhibition at 1 µM [4]: 9.49%
FC(F)(F)c1ccc(CNc2ccc(Cc3c[nH]c4ncc(Cl)cc34)cn2)cn1 [pexidartinib]	4.45	11	11	45	12	-4	12	5.44	3	-7	14	10	0.769	5.41	21	10	-20	8	4.37	83	–
